Measurements from the supplement of paper PMC10307832.

Assays:
Experiment in all cases: relative viability (nuclei count vs DMSO), 5 days (fraction); higher = more cells survive
Salubrinal + Dasatinib = compound: O=C(/C=C/c1ccccc1)NC(NC(=S)Nc1cccc2cccnc12)C(Cl)(Cl)Cl [Salubrinal] + Cc1nc(Nc2ncc(C(=O)Nc3c(C)cccc3Cl)s2)cc(N2CCN(CCO)CC2)n1 [Dasatinib] (partner 0.075 µM)
Method in brief: (§1)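 Nuclei were stained with Hoechst during a one-step fixation (final 0.05% Triton X-100, 1% formaldehyde, 1 ug/ml Hoechst) carried out 5 days after dosing, then counted on 4× images. The cells, lung cancer lines in 1536-well plates, had been dosed by pin tool the day after seeding with one drug alone or a fixed anchor-drug dose plus five library-drug doses (not always all listed) in √10 steps. Relative viability is the nuclei count in treated wells divided by that in vehicle wells, and each value is the median of duplicate plates.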

[1] = compound: Cc1ccc2nc(NCCN)c3ncc(C)n3c2c1 + COc1cccc2cc(-c3nc([C@H]4CC[C@H](C(=O)O)CC4)n4ncnc(N)c34)[nH]c12 [OSI-027] (partner 0.5 µM)
Method in brief: as §1

[2] = compound: Cc1ccc2nc(NCCN)c3ncc(C)n3c2c1 + CS(=O)(=O)N1CCN(Cc2cc3nc(-c4cccc5[nH]ncc45)nc(N4CCOCC4)c3s2)CC1 [Pictilisib] (partner 1 µM)
Method in brief: as §1

Salubrinal + Lapatinib = compound: O=C(/C=C/c1ccccc1)NC(NC(=S)Nc1cccc2cccnc12)C(Cl)(Cl)Cl [Salubrinal] + CS(=O)(=O)CCNCc1ccc(-c2ccc3ncnc(Nc4ccc(OCc5cccc(F)c5)c(Cl)c4)c3c2)o1 [Lapatinib] (partner 2 µM)
Method in brief: as §1

Cell Line	relative viability (Salubrinal + Dasatinib; first compound 0.08 µM)	relative viability (Salubrinal + Dasatinib; first compound 0.253 µM)	relative viability (Salubrinal + Dasatinib; first compound 0.8 µM)	relative viability (Salubrinal + Dasatinib; first compound 2.53 µM)	relative viability (Salubrinal + Dasatinib; first compound 8 µM)	relative viability ([1]; first compound 0.04 µM)	relative viability ([1]; first compound 0.1265 µM)	relative viability ([1]; first compound 0.4 µM)	relative viability ([1]; first compound 1.265 µM)	relative viability ([1]; first compound 4 µM)	relative viability ([2]; first compound 0.04 µM)	relative viability ([2]; first compound 0.1265 µM)	relative viability ([2]; first compound 0.4 µM)	relative viability ([2]; first compound 1.265 µM)	relative viability ([2]; first compound 4 µM)	relative viability (Salubrinal + Lapatinib; first compound 0.08 µM)	relative viability (Salubrinal + Lapatinib; first compound 0.253 µM)	relative viability (Salubrinal + Lapatinib; first compound 0.8 µM)	relative viability (Salubrinal + Lapatinib; first compound 2.53 µM)	relative viability (Salubrinal + Lapatinib; first compound 8 µM)
NCI-H522	0.988	0.976	0.981	0.869	0.972	0.622	0.802	0.649	0.657	0.613	–	–	–	–	–	–	–	–	–	–
HCC-15	0.723	0.586	0.701	0.627	0.498	0.708	0.807	0.544	0.659	0.581	0.799	0.761	0.666	0.707	0.694	0.902	0.736	1	0.88	0.875
A-427	0.724	0.643	0.747	0.68	0.654	0.499	0.408	0.488	0.49	0.451	0.743	0.653	0.596	0.691	0.702	1.09	0.966	1.11	0.961	1.03
NCI-H2228	0.568	0.485	0.508	0.528	0.431	0.589	0.656	0.617	0.59	0.719	0.464	0.592	0.417	0.272	0.369	1.29	0.775	1.35	1.08	0.743
NCI-H1734	0.485	0.462	0.574	0.465	0.422	0.619	0.557	0.502	0.551	0.543	0.457	0.481	0.451	0.409	0.424	1.11	1.08	1.18	1.05	1.02
PC-14	0.313	0.252	0.264	0.203	0.166	0.882	0.819	0.979	0.759	0.388	0.753	0.736	0.757	0.481	0.583	0.412	0.347	0.331	0.29	0.382
NCI-H1915	0.359	0.373	0.323	0.298	0.345	0.641	0.605	–	0.696	0.594	0.969	–	0.578	0.939	0.923	0.981	0.683	1.04	1	0.963
NCI-H1666	0.845	0.721	0.799	0.806	0.613	0.839	0.799	0.887	0.816	0.774	0.372	0.478	0.402	0.554	0.449	0.582	0.56	0.767	0.58	0.691
HCC-366	0.813	0.497	0.777	0.555	0.528	1.11	1.05	0.677	0.892	0.899	0.131	0.123	0.163	0.114	0.116	1.23	0.796	1.12	1.01	1.08
NCI-H2170	0.764	0.526	0.71	0.57	0.534	0.737	0.737	0.657	0.715	0.701	0.31	0.337	0.361	0.292	0.319	0.275	0.289	0.248	0.271	0.263
SW 1573	0.553	0.488	0.627	0.402	0.417	0.737	0.579	0.711	0.634	0.409	0.449	0.577	0.418	0.507	0.502	1.02	1.14	1.09	1.11	1.16
NCI-H661	0.995	0.921	0.928	0.871	0.86	0.808	0.713	0.732	0.82	0.693	0.511	0.514	0.421	0.35	0.299	0.609	0.497	0.248	0.467	0.412
PC-3 [JPC-3]	1.14	0.762	1.1	0.966	0.961	0.776	0.83	0.734	0.822	0.767	0.758	0.752	0.731	0.725	0.7	0.436	0.423	0.459	0.484	0.472
NCI-H2342	0.304	0.278	0.305	0.298	0.291	0.659	0.607	0.767	0.551	0.595	–	–	–	–	–	–	–	–	–	–
Calu-6	–	–	–	–	–	–	–	–	–	–	1	0.781	0.989	0.836	0.475	1.28	1.03	1.27	1.08	1.06
LC-2-ad	0.543	0.354	1.11	0.581	0.448	0.866	0.825	0.789	0.889	0.784	0.504	0.683	0.439	0.429	0.423	1.07	0.608	1.1	0.971	0.868
CAL-12T	0.543	0.422	0.347	0.264	0.23	0.798	0.572	0.824	0.76	0.52	0.521	0.517	0.389	0.364	0.232	0.804	0.688	0.629	0.663	0.636

Cell Line	relative viability (Salubrinal + Dasatinib; first compound 0.08 µM)	relative viability (Salubrinal + Dasatinib; first compound 0.253 µM)	relative viability (Salubrinal + Dasatinib; first compound 0.8 µM)	relative viability (Salubrinal + Dasatinib; first compound 2.53 µM)	relative viability (Salubrinal + Dasatinib; first compound 8 µM)	relative viability ([1]; first compound 0.04 µM)	relative viability ([1]; first compound 0.1265 µM)	relative viability ([1]; first compound 0.4 µM)	relative viability ([1]; first compound 1.265 µM)	relative viability ([1]; first compound 4 µM)	relative viability ([2]; first compound 0.04 µM)	relative viability ([2]; first compound 0.1265 µM)	relative viability ([2]; first compound 0.4 µM)	relative viability ([2]; first compound 1.265 µM)	relative viability ([2]; first compound 4 µM)	relative viability (Salubrinal + Lapatinib; first compound 0.08 µM)	relative viability (Salubrinal + Lapatinib; first compound 0.253 µM)	relative viability (Salubrinal + Lapatinib; first compound 0.8 µM)	relative viability (Salubrinal + Lapatinib; first compound 2.53 µM)	relative viability (Salubrinal + Lapatinib; first compound 8 µM)
RERF-LC-KJ	0.928	0.771	0.92	0.827	0.634	0.596	0.639	0.566	0.604	0.52	0.511	0.433	0.44	0.542	0.501	0.871	0.75	0.837	0.828	0.822
NCI-H1650	0.366	0.35	0.321	0.357	0.294	0.784	0.563	0.53	0.548	0.438	0.531	0.564	0.429	0.527	0.515	0.805	0.817	0.9	0.731	0.953
BEN	0.34	0.406	0.397	0.313	0.308	0.316	0.291	0.328	0.276	0.324	0.628	0.584	0.596	0.481	0.556	0.677	0.732	0.751	0.767	0.894
EMC-BAC-2	0.305	0.334	0.359	0.411	0.335	0.387	0.381	0.344	0.394	0.377	0.586	0.58	0.554	0.569	0.579	0.823	0.815	0.947	0.865	0.938
NCI-H1299	–	–	–	–	–	–	–	–	–	–	0.864	0.761	0.735	0.55	0.263	0.96	0.924	0.98	0.918	0.883
EBC-1	–	–	–	–	–	–	–	–	–	–	0.4	0.35	0.336	0.246	0.263	0.191	0.289	0.187	0.167	0.198
ChaGo-K-1	0.685	0.544	0.667	0.57	0.524	0.601	0.586	0.601	0.475	0.419	0.697	0.743	0.661	0.671	0.443	–	–	–	–	–
HCC-44	–	–	–	–	–	0.49	0.451	0.448	0.631	0.384	0.692	0.777	0.595	0.535	0.565	0.91	0.743	1.1	0.97	0.939
NCI-H1648	–	–	–	–	–	0.242	–	0.249	–	0.233	–	–	–	–	–	–	–	–	–	–
NCI-H1623	0.475	0.485	0.54	0.514	0.572	0.418	0.444	0.451	0.39	0.425	–	–	–	–	–	–	–	–	–	–
A549	–	–	–	–	–	–	–	–	–	–	0.587	0.439	0.451	0.451	0.345	1.08	0.954	1.03	0.939	0.886
IA-LM	–	–	–	–	–	–	–	–	–	–	0.343	0.335	0.188	0.238	0.347	0.742	0.536	0.916	0.856	0.593
NCI-H1703	–	–	–	–	–	–	–	–	–	–	0.299	0.248	0.257	0.321	0.233	1.24	–	1.24	0.917	0.892
NCI-H441	0.781	0.5	0.756	0.65	0.47	0.615	0.785	0.684	0.654	0.581	0.557	0.464	0.454	0.505	0.472	–	–	–	–	–
LCLC-103H	0.501	0.35	0.514	0.53	0.507	0.551	0.492	0.464	0.494	0.421	0.534	0.644	0.561	0.6	0.576	–	–	–	–	–
SW 900	1.09	–	0.66	0.584	0.497	0.453	0.661	–	0.465	0.553	–	–	–	–	–	–	–	–	–	–
